US20250368666A1, “INDAZOLE COMPOUNDS” (TYRA BIOSCIENCES, INC., priority 2022, published 2025)
pIC50: −log10 of the molar value.

Tests used:
[1] = tested on: MDA-MB-453 cell line (FGFR4-Y367C); assay: Cancer cell line cell viability assay (Cell Titer-Glo), 120 hr; assay type: cell-based; conditions: Homo sapiens
Procedure, shortened: (§1)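 5,000-20,000 cells/well o/n; cpd 9-pt 4x dil from 3 μM, n=3; 37° C/5% CO2; CTG 2.0 lumi; % DMSO ctrl; 4PL IC50.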

FGFR4 = molecular target: T1, FGFR4 (Homo sapiens, UniProt P22455); assay: Kinase binding assay (kinase-tagged T7 phage, affinity beads, qPCR), Kd; conditions: read-out: FGFR4 (Kd nM)
T1 construct: made in house; host or cells: E. coli (BL21-derived), T7 phage
Procedure, shortened: (§2)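 Phage-tagged kinase capture on small-molecule affinity resin, compound competition, qPCR quantitation; Kd from Levenberg-Marquardt Hill fit.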

FGFR3 (V555M) = molecular target: T2, FGFR3 (V555M) (Homo sapiens, UniProt P22607, V555M); assay: as above; conditions: V555M mutant; read-out: FGFR3 (V555M) (Kd nM)
T2 construct: made in house; host or cells: E. coli (BL21-derived), T7 phage
Procedure, shortened: as §2

FGFR3 = molecular target: T3, FGFR3 (Homo sapiens, UniProt P22607); assay: as above; conditions: read-out: FGFR3 (Kd nM)
T3 construct: made in house; host or cells: E. coli (BL21-derived), T7 phage
Procedure, shortened: as §2

FGFR1 = molecular target: T4, FGFR1 (Homo sapiens, UniProt P11362); assay: as above; conditions: read-out: FGFR1 (Kd nM)
T4 construct: made in house; host or cells: E. coli (BL21-derived), T7 phage
Procedure, shortened: as §2

FGFR2 = molecular target: T5, FGFR2 (Homo sapiens, UniProt P21802); assay: as above; conditions: read-out: FGFR2 (Kd nM)
T5 construct: made in house; host or cells: E. coli (BL21-derived), T7 phage
Procedure, shortened: as §2

[2] = tested on: KG-1 cell line (FGFR 1-fusion); assay: Cancer cell line cell viability assay (Cell Titer-Glo), 72 hr; assay type: cell-based; conditions: Homo sapiens, KG-1, KG-1 cell line (FGFR1-fusion)
Procedure, shortened: as §1

[3] = tested on: KATO-III cell line (FGFR2 amplification); assay: as above; assay type: cell-based; conditions: Homo sapiens, KATO III
Procedure, shortened: as §1

[4] = tested on: RT112/84 cell line (FGFR3-fusion); assay: as above; assay type: cell-based; conditions: Homo sapiens, RT112/84, RT112/84 cell line (FGFR3-fusion)
Procedure, shortened: as §1

T3 sequence (P22607 23-806): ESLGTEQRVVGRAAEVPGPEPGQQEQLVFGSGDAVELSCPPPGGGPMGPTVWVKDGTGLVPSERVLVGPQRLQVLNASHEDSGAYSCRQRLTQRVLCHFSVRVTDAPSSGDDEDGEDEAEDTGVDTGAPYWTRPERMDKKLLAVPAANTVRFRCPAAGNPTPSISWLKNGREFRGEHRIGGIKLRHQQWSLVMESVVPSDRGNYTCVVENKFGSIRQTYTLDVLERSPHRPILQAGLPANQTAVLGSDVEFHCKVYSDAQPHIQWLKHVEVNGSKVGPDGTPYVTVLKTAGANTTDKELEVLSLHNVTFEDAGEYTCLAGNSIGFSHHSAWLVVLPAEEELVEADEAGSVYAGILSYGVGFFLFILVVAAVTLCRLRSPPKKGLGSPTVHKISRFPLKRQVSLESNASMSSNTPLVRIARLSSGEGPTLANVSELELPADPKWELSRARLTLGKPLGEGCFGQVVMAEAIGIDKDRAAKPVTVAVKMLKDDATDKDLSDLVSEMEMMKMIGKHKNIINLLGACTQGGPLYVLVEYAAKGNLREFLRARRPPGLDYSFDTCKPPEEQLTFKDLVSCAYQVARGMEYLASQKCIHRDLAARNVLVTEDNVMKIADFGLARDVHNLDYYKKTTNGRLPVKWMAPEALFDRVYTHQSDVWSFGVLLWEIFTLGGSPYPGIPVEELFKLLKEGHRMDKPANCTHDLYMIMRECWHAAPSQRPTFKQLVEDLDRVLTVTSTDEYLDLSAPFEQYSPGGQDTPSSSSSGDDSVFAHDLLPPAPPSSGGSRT
T2 sequence (P22607 23-806 V555M): as the sequence (P22607 23-806) above, with V533M counted along it
T4 sequence (P11362 22-822): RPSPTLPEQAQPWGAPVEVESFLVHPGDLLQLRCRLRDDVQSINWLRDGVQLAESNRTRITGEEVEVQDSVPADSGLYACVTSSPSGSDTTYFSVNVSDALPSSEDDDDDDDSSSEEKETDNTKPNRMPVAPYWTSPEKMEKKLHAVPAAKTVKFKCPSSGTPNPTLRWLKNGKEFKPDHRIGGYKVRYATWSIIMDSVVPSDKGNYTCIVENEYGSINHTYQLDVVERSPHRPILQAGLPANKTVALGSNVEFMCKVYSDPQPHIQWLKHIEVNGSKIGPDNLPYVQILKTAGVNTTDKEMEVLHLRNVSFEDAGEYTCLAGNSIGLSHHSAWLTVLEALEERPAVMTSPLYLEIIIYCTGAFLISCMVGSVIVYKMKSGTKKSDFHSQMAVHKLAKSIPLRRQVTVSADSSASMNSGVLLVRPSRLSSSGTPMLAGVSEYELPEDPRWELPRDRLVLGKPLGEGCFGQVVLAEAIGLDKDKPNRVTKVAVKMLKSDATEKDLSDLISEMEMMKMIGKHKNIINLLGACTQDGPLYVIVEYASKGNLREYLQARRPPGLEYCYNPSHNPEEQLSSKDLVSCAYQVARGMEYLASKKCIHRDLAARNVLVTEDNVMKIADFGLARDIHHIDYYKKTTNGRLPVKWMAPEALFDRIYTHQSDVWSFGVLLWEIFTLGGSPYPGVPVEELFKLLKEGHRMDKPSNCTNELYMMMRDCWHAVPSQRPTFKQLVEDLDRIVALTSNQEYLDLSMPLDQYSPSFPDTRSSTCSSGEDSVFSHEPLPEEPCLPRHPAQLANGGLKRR
T1 sequence (P22455 22-802): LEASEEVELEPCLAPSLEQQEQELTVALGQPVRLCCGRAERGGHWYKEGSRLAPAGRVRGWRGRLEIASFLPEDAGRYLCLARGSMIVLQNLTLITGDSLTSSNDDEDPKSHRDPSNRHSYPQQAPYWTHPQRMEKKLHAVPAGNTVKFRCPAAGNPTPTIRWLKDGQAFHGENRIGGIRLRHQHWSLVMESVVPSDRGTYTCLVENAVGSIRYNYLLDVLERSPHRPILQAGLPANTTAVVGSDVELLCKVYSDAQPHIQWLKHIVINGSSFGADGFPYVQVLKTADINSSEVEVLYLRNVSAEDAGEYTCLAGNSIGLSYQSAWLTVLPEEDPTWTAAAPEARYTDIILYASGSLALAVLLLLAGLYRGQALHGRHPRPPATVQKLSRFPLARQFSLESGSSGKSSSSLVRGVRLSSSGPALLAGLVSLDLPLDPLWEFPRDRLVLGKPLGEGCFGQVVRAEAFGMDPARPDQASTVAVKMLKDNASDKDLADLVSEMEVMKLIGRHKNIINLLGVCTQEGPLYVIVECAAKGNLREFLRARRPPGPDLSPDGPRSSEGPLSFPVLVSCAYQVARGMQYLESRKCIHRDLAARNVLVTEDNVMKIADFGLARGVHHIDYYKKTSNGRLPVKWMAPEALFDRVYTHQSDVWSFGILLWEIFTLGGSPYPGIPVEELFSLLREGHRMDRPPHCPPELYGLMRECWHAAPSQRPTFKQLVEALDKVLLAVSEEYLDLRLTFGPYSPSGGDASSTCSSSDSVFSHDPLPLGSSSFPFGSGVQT
T5 sequence (P21802 22-821): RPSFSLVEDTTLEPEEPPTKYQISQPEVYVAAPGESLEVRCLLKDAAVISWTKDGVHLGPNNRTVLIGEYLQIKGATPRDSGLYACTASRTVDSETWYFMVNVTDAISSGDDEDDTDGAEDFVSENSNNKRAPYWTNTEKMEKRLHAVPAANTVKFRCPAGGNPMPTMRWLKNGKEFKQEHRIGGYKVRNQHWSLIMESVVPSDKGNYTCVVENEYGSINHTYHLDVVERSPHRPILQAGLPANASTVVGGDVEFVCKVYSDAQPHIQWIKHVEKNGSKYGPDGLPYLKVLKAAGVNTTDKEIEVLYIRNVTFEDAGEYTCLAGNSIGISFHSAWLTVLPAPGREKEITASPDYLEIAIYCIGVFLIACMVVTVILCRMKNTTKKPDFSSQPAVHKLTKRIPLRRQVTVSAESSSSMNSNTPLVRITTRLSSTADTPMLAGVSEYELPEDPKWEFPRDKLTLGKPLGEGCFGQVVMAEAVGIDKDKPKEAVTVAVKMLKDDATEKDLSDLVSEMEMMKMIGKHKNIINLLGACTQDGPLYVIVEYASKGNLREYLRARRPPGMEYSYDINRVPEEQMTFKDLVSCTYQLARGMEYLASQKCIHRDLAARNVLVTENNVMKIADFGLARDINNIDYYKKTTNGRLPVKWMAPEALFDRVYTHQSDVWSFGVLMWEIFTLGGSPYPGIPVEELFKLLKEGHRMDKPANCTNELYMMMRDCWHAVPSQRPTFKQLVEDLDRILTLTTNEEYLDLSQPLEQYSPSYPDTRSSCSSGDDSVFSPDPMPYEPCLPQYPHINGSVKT

| SMILES | pIC50 [1] | Kd (FGFR4) [nM] | Kd (FGFR3 (V555M)) [nM] | Kd (FGFR3) [nM] | Kd (FGFR1) [nM] | Kd (FGFR2) [nM] | pIC50 [2] | pIC50 [3] | pIC50 [4] |
| --- | --- | --- | --- | --- | --- | --- | --- | --- | --- |
| CC[C@@H](C)NC1(C)CN(c2ccc(-c3n[nH]c4ccc(O[C@H](C)c5c(Cl)cncc5Cl)cc34)cn2)C1 [Example 225, 1-[5-[5-[(1R)-1-(3,5-dichloro-4-pyridyl)ethoxy]-1H-indazol-3-yl]-2-pyridyl]-3-methyl-N-[(1R)-1-meth-ylpropyl]azetidin-3-amine] | 6.70 to 7.30 | 1 to 50 | 1 to 50 | 1 to 50 | 1 to 50 | 1 to 50 | 6.70 to 7.30 | 7.30 to 10.00 | 7.30 to 10.00 |
| C[C@@H](Oc1ccc2[nH]nc(-c3ccc(N4CC(C)(CS(C)(=O)=O)C4)nc3)c2c1)c1c(Cl)cncc1Cl [Example 181, (R)-5-(1-(3,5-dichloropyridin-4-yl)ethoxy)-3-(6-(3-methyl-3-((methylsulfonyl)-methyl)azetidin-1-yl)pyridin-3-yl)-1H-indazole] | 6.70 to 7.30 | 1 to 50 | 1 to 50 | 1 to 50 | 1 to 50 | 1 to 50 | 6.70 to 7.30 | 7.30 to 10.00 | 7.30 to 10.00 |
| CC(=O)N1CCN(C2(C)CN(c3ncc(-c4n[nH]c5ccc(O[C@H](C)c6c(Cl)cncc6Cl)cc45)cc3F)C2)CC1 [Example 220, 1-[4-[1-[5-[5-[(1R)-1-(3,5-dichloro-4-pyridyl)ethoxy]-1H-indazol-3-yl]-3-fluoro-2-pyridyl]-3-methyl-azetidin-3-yl]piperazin-1-yl]ethanone] | 6.70 to 7.30 | 1 to 50 | 1 to 50 | 1 to 50 | 1 to 50 | 1 to 50 | 6.70 to 7.30 | 7.30 to 10.00 | 7.30 to 10.00 |
| CNC1(C)CN(c2ncc(-c3n[nH]c4ccc(O[C@@H](C)c5c(Cl)cncc5Cl)cc34)cc2F)C1 [Example 205, 1-[5-[5-[(1S)-1-(3,5-dichloro-4-pyridyl)ethoxy]-1H-indazol-3-yl]-3-fluoro-2-pyridyl]-N,3-dimethyl-azetidin-3-amine] | < 6.00 | 50 to 300 | 1 to 50 | 50 to 300 | 50 to 300 | 300 to 1000 | < 6.00 | 6.00 to 6.70 | < 6.00 |
| CC(C)CNC1(C)CN(c2ccc(-c3n[nH]c4ccc(O[C@H](C)c5c(Cl)cncc5Cl)cc34)cn2)C1 [Example 224, (R)-1-(5-(5-(1-(3,5-dichloropyridin-4-yl)ethoxy)-1H-indazol-3-yl)pyridin-2-yl)-N-isobutyl-3-methylazetidin-3-amine] | 6.70 to 7.30 | 1 to 50 | 1 to 50 | 1 to 50 | 1 to 50 | 1 to 50 | 6.70 to 7.30 | 7.30 to 10.00 | 7.30 to 10.00 |
| Cc1ncc(Cl)c([C@@H](C)Oc2ccc3[nH]nc(-c4ccc(N5CC(C)(N(C)C)C5)nc4)c3c2)c1Cl [Example 78, 1-[5-[5-[(1R)-1-(3,5-dichloro-2-methyl-4-pyridyl)ethoxy]-1H-indazol-3-yl]-2-pyridyl]-N,N,3-trimethyl-azetidin-3-amine] | 6.00 to 6.70 | 1 to 50 | 1 to 50 | 1 to 50 | 1 to 50 | 1 to 50 | 6.00 to 6.70 | 6.70 to 7.30 | 7.30 to 10.00 |
| C[C@@H](Oc1ccc2[nH]nc(-c3ccc(N4CC(C)(NCC5CC5)C4)nc3)c2c1)c1c(Cl)cncc1Cl [Example 219, (R)-N-(cyclo-propylmethyl)-1-(5-(5-(1-(3,5-dichloropyridin-4-yl)ethoxy)-1H-indazol-3-yl)pyridin-2-yl)-3-methylazetidin-3-amine] | 6.70 to 7.30 | 1 to 50 | 1 to 50 | 1 to 50 | 1 to 50 | 1 to 50 | 7.30 to 10.00 | 7.30 to 10.00 | 7.30 to 10.00 |
| C[C@@H]1[C@@H](CS(C)(=O)=O)CN1c1ncc(-c2n[nH]c3ccc(O[C@H](C)c4c(Cl)cncc4Cl)cc23)cc1F [Example 207, 5-((R)-1-(3,5-dichloropyridin-4-yl)ethoxy)-3-(5-fluoro-6-((2R,3S)-2-methyl-3-((methylsulfonyl)methyl)azetidin-1-yl)pyridin-3-yl)-1H-indazole] | 6.70 to 7.30 | 1 to 50 | 1 to 50 | 1 to 50 | 1 to 50 | 1 to 50 | 6.70 to 7.30 | 6.70 to 7.30 | 7.30 to 10.00 |
| C[C@@H](Oc1ccc2[nH]nc(-c3cnc(N4CC(C)(NCC(F)F)C4)c(F)c3)c2c1)c1c(Cl)cncc1Cl [Example 155, 1-[5-[5-[(1R)-1-(3,5-dichloro-4-pyridyl)ethoxy]-1H-indazol-3-yl]-3-fluoro-2-pyridyl]-N-(2,2-difluoroethyl)-3-methyl-azetidin-3-amine] | 6.70 to 7.30 | 1 to 50 | 1 to 50 | 1 to 50 | 1 to 50 | 1 to 50 | 6.70 to 7.30 | 7.30 to 10.00 | 7.30 to 10.00 |
| C[C@@H](Oc1ccc2[nH]nc(-c3cnc(N4C[C@@H](CS(C)(=O)=O)[C@@H]4C)c(F)c3)c2c1)c1c(Cl)cncc1Cl [Example 206, 5-((R)-1-(3,5-dichloropyridin-4-yl)ethoxy)-3-(5-fluoro-6-((2S,3R)-2-methyl-3-((methylsulfonyl)methyl)azetidin-1-yl)pyridin-3-yl)-1H-indazole] | 6.70 to 7.30 | 1 to 50 | 1 to 50 | 1 to 50 | 1 to 50 | 1 to 50 | 6.70 to 7.30 | 7.30 to 10.00 | 7.30 to 10.00 |

Next, values leading:

| pIC50 [1] | Kd (FGFR4) [nM] | Kd (FGFR3 (V555M)) [nM] | Kd (FGFR3) [nM] | Kd (FGFR1) [nM] | Kd (FGFR2) [nM] | pIC50 [2] | pIC50 [3] | pIC50 [4] | SMILES |
| --- | --- | --- | --- | --- | --- | --- | --- | --- | --- |
| 6.70 to 7.30 | 1 to 50 | 1 to 50 | 1 to 50 | 1 to 50 | 1 to 50 | 6.70 to 7.30 | 7.30 to 10.00 | 7.30 to 10.00 | CCCNC1(C)CN(c2ccc(-c3n[nH]c4ccc(O[C@H](C)c5c(Cl)cncc5Cl)cc34)cn2)C1 [Example 227, 1-[5-[5-[(1R)-1-(3,5-dichloro-4-pyridyl)ethoxy]-1H-indazol-3-yl]-2-pyridyl]-3-methyl-N-propyl-azetidin-3-amine] |
| 6.70 to 7.30 | 1 to 50 | 1 to 50 | 1 to 50 | 1 to 50 | 1 to 50 | 7.30 to 10.00 | 7.30 to 10.00 | 7.30 to 10.00 | C[C@@H](Oc1ccc2[nH]nc(-c3ccc(N4CC(C)(NCC5CC5)C4)nc3F)c2c1)c1c(Cl)cncc1Cl [Example 237, (R)—N-(cyclopropylmethyl)-1-(5-(5-(1-(3,5-dichloropyridin-4-yl)ethoxy)-1H-indazol-3-yl)-6-fluoropyridin-2-yl)-3-methylazetidin-3-amine] |
| 7.30 to 10.00 | – | – | 1 to 50 | 1 to 50 | – | 6.70 to 7.30 | 7.30 to 10.00 | 7.30 to 10.00 | C[C@@H](Oc1ccc2[nH]nc(-c3cnc(N4CC(N)(CCF)C4)c(F)c3)c2c1)c1c(Cl)cncc1Cl [Example 284, (R)-1-(5-(5-(1-(3,5-dichloropyridin-4-yl)ethoxy)-1H-indazol-3-yl)-3-fluoropyridin-2-yl)-3-(2-fluoroethyl)azetidin-3-amine] |
| 7.30 to 10.00 | – | – | 1 to 50 | 1 to 50 | – | 7.30 to 10.00 | 7.30 to 10.00 | 7.30 to 10.00 | COCCC1(N)CN(c2ncc(-c3n[nH]c4ccc(O[C@H](C)c5c(Cl)cncc5Cl)cc34)cc2F)C1 [Example 273, (R)-1-(5-(5-(1-(3,5-dichloropyridin-4-yl)ethoxy)-1H-indazol-3-yl)-3-fluoropyridin-2-yl)-3-(2-methoxy-ethyl)azetidin-3-amine] |
| 6.00 to 6.70 | – | – | 1 to 50 | 50 to 300 | – | 6.00 to 6.70 | 6.70 to 7.30 | 7.30 to 10.00 | Cc1ncc(Cl)c([C@@H](C)Oc2ccc3[nH]nc(-c4cnc(N5CC(CC#N)(NCC6CC6)C5)c(F)c4)c3c2)c1Cl [Example 250, 2-[3-(cyclopropylmethyl-amino)-1-[5-[5-[(1R)-1-(3,5-di-chloro-2-methyl-4-pyridyl)ethoxy]-1H-indazol-3-yl]-3-fluoro-2-pyridyl]azetidin-3-yl]acetonitrile] |
| 6.00 to 6.70 | – | – | 1 to 50 | 1 to 50 | – | 6.00 to 6.70 | 6.70 to 7.30 | 7.30 to 10.00 | CC(C)CC1(N)CN(c2ncc(-c3n[nH]c4ccc(O[C@H](C)c5c(Cl)cncc5Cl)cc34)cc2F)C1 [Example 258, (R)-1-(5-(5-(1-(3,5-dichloropyridin-4-yl)ethoxy)-1H-indazol-3-yl)-3-fluoropyridin-2-yl)-3-isobutylazetidin-3-amine] |
